# Measurements from patent US6458748B1, “Di- or tri-fluoromethanesulfonyl anilide derivatives, process for the preparation of them and herbicides containing them as the active ingredient” (Ihara Chemical Industry Co., Ltd., priority 1998, dated 2002).
# Key:
# [1] = tested on: Echinochloa oryzicola vasing.; experiment: Test 1 paddy pot herbicidal effect, water surface application; assay type: in vivo; details: applied day after sowing, evaluated 28 days later
# Source text: (§1) Standard of herbicidal effect (level of suppression of development and growth) […] Herbicidal effect of 90% or more, injury to paddy rice […] Herbicidal effect of 70% or more to less than 90%, injury to paddy rice […] 2: […]
# [2] = tested on: Monochoria vaginalis (Burm. f.) Presl var. plantaginea (Roxb.) Solms-Laub.; experiment: as above; assay type: in vivo; details: applied day after sowing, evaluated 28 days later
# Source text: as §1
# [3] = tested on: Echinochloa oryzicola vasing.; experiment: Test 4 paddy pot herbicidal effect; details: applied next day, 28th day from application
# Sagittaria pygmaea Miq. = experiment: Test 4 paddy pot herbicidal effect; details: applied next day, 28th day from application
# Cyperus serotinus Rottb. = experiment: Test 4 paddy pot herbicidal effect; details: applied next day, 28th day from application
# [4] = tested on: Echindchloa oryzicola Vasing. (Ec); experiment: Test 5 herbicidal effect by application stage; details: 28th day from application
substance,measurement,setting,value
"2-[(4,6-dimethoxypyrimidine-2-yl)hydroxymethyl]-6-methoxymethyltrifluoromethanesulfonyl anilide [Example 4]",Herbicidal effect Ec,[1]; 0.4 g/10 ares,"2 (Herbicidal effect of 30% or more to less than 50%, injury to paddy rice)"
same,Herbicidal effect Ec,[1]; 1.6 g/10 ares,"5 (Herbicidal effect of 90% or more, injury to paddy rice)"
same,Herbicidal effect Ec,[1]; 6.3 g/10 ares,"5 (Herbicidal effect of 90% or more, injury to paddy rice)"
same,Herbicidal effect Ec,[1]; 25.0 g/10 ares,"5 (Herbicidal effect of 90% or more, injury to paddy rice)"
same,Herbicidal effect Mo,[2]; 0.4 g/10 ares,"3 (Herbicidal effect of 50% or more to less than 70%, injury to paddy rice)"
same,Herbicidal effect Mo,[2]; 1.6 g/10 ares,"5 (Herbicidal effect of 90% or more, injury to paddy rice)"
same,Herbicidal effect Mo,[2]; 6.3 g/10 ares,"5 (Herbicidal effect of 90% or more, injury to paddy rice)"
same,Herbicidal effect Mo,[2]; 25.0 g/10 ares,"5 (Herbicidal effect of 90% or more, injury to paddy rice)"
same,Herbicidal effect Ec,[3]; 0.6 g/10 ares,"2 (Herbicidal effect of 30% or more to less than 50%, injury to paddy rice)"
same,Herbicidal effect Ec,[3]; 1.3 g/10 ares,"4 (Herbicidal effect of 70% or more to less than 90%, injury to paddy rice)"
same,Herbicidal effect Ec,[3]; 2.5 g/10 ares,"5 (Herbicidal effect of 90% or more, injury to paddy rice)"
same,Herbicidal effect Ec,[3]; 5.0 g/10 ares,"5 (Herbicidal effect of 90% or more, injury to paddy rice)"
same,Herbicidal effect Sa,Sagittaria pygmaea Miq.; 0.6 g/10 ares,"4 (Herbicidal effect of 70% or more to less than 90%, injury to paddy rice)"
same,Herbicidal effect Sa,Sagittaria pygmaea Miq.; 1.3 g/10 ares,"5 (Herbicidal effect of 90% or more, injury to paddy rice)"
same,Herbicidal effect Sa,Sagittaria pygmaea Miq.; 2.5 g/10 ares,"5 (Herbicidal effect of 90% or more, injury to paddy rice)"
same,Herbicidal effect Sa,Sagittaria pygmaea Miq.; 5.0 g/10 ares,"5 (Herbicidal effect of 90% or more, injury to paddy rice)"
same,Herbicidal effect Cy,Cyperus serotinus Rottb.; 0.6 g/10 ares,"4 (Herbicidal effect of 70% or more to less than 90%, injury to paddy rice)"
same,Herbicidal effect Cy,Cyperus serotinus Rottb.; 1.3 g/10 ares,"5 (Herbicidal effect of 90% or more, injury to paddy rice)"
same,Herbicidal effect Cy,Cyperus serotinus Rottb.; 2.5 g/10 ares,"5 (Herbicidal effect of 90% or more, injury to paddy rice)"
same,Herbicidal effect Cy,Cyperus serotinus Rottb.; 5.0 g/10 ares,"5 (Herbicidal effect of 90% or more, injury to paddy rice)"
same,Herbicidal effect (Ec) Application stage 1-leaf,[4]; 1.3 g/10 ares,"4 (Herbicidal effect of 70% or more to less than 90%, injury to paddy rice)"
same,Herbicidal effect (Ec) Application stage 2-leaf,[4]; 1.3 g/10 ares,"3 (Herbicidal effect of 50% or more to less than 70%, injury to paddy rice)"
same,Herbicidal effect (Ec) Application stage 3-leaf,[4]; 1.3 g/10 ares,"3 (Herbicidal effect of 50% or more to less than 70%, injury to paddy rice)"
same,Herbicidal effect (Ec) Application stage 1-leaf,[4]; 2.5 g/10 ares,"5 (Herbicidal effect of 90% or more, injury to paddy rice)"
same,Herbicidal effect (Ec) Application stage 2-leaf,[4]; 2.5 g/10 ares,"5 (Herbicidal effect of 90% or more, injury to paddy rice)"
same,Herbicidal effect (Ec) Application stage 3-leaf,[4]; 2.5 g/10 ares,"5 (Herbicidal effect of 90% or more, injury to paddy rice)"
same,Herbicidal effect (Ec) Application stage 1-leaf,[4]; 5.0 g/10 ares,"5 (Herbicidal effect of 90% or more, injury to paddy rice)"
same,Herbicidal effect (Ec) Application stage 2-leaf,[4]; 5.0 g/10 ares,"5 (Herbicidal effect of 90% or more, injury to paddy rice)"
same,Herbicidal effect (Ec) Application stage 3-leaf,[4]; 5.0 g/10 ares,"5 (Herbicidal effect of 90% or more, injury to paddy rice)"
